This is an account of results in ChEMBL document CHEMBL4138309, “Discovery of β-Adrenergic Receptors Blocker-Carbonic Anhydrase Inhibitor Hybrids for Multitargeted Antiglaucoma Therapy” (J Med Chem, 2018).

Assay [1] deals with Beta-1 adrenergic receptor (Homo sapiens, UniProt P08588). Briefly: biochemical.
The target of a further assay is Carbonic anhydrase 9 (Homo sapiens, UniProt Q16790).
Assay [2] deals with Beta-2 adrenergic receptor (Homo sapiens, UniProt P07550). Briefly: Displacement of [3H]-CGP12177 from human beta2 ADR expressed in HEK293T cell membrane after 90 mins by scintillation counting. A general note: In a radioligand displacement assay an active substance lowers the binding of a labelled ligand.
Beta-2 adrenergic receptor, sequence (P07550 whole entry): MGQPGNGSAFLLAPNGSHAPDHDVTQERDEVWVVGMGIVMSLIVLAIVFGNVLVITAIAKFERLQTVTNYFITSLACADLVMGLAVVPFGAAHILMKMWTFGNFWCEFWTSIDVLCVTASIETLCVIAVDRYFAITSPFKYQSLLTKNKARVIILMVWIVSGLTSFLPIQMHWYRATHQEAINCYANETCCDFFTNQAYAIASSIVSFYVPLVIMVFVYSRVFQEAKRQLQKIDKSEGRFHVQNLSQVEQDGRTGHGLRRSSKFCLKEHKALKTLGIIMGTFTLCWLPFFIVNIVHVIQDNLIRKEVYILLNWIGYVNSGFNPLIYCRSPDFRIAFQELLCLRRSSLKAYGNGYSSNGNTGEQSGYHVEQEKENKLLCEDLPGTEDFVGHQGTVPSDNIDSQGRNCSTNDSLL
The subject of assay [3] is Oryctolagus cuniculus. Briefly: Anti-glaucoma activity in hypertonic saline-induced hypertensive New Zealand albino rabbit model assessed as decrease in intraocular pressure at 1% instilled into eye vitreous measured at 60 mins post administration by pneumatonometric analysis relative to DRZ + timolol (1% + 0.25%). The assay is classed as functional, organism-based.
The subject of assay [4] is Oryctolagus cuniculus. Briefly: Anti-glaucoma activity in hypertonic saline-induced hypertensive New Zealand albino rabbit model assessed as decrease in intraocular pressure at 0.25% instilled into eye vitreous along with 1% DRZ measured at 2 hrs post administration by pneumatonometric analysis. The assay is classed as functional.
In assay [5] the test system is Oryctolagus cuniculus. Briefly: Anti-glaucoma activity in hypertonic saline-induced hypertensive New Zealand albino rabbit model assessed as decrease in intraocular pressure at 0.25% instilled into eye vitreous measured at 2 hrs post administration by pneumatonometric analysis. The assay is classed as functional.
Assay [6] concerns Oryctolagus cuniculus. Briefly: Anti-glaucoma activity in hypertonic saline-induced hypertensive New Zealand albino rabbit model assessed as decrease in intraocular pressure at 0.25% instilled into eye vitreous measured at 60 mins post administration by pneumatonometric analysis. The assay is classed as functional.
Assay [7] deals with Oryctolagus cuniculus. Briefly: Anti-glaucoma activity in hypertonic saline-induced hypertensive New Zealand albino rabbit model assessed as decrease in intraocular pressure at 0.25% instilled into eye vitreous along with 1% DRZ measured at 4 hrs post administration by pneumatonometric analysis. It is filed as functional, organism-based.
For assay [8], the system named is Oryctolagus cuniculus. Briefly: Anti-glaucoma activity in hypertonic saline-induced hypertensive New Zealand albino rabbit model assessed as decrease in intraocular pressure at 0.25% instilled into eye vitreous measured at 4 hrs post administration by pneumatonometric analysis. It is filed as functional, organism-based.
Assay [9] has as its system Oryctolagus cuniculus. Briefly: Anti-glaucoma activity in hypertonic saline-induced hypertensive New Zealand albino rabbit model assessed as decrease in intraocular pressure at 1% instilled into eye vitreous measured at 4 hrs post administration by pneumatonometric analysis. It is filed as functional.

pKi: −log10 of the molar value. The source made the active and inactive calls. The calls are words filed in the database; no cut-off is given here.

Beta-1 adrenergic receptor, sequence (P08588 whole entry): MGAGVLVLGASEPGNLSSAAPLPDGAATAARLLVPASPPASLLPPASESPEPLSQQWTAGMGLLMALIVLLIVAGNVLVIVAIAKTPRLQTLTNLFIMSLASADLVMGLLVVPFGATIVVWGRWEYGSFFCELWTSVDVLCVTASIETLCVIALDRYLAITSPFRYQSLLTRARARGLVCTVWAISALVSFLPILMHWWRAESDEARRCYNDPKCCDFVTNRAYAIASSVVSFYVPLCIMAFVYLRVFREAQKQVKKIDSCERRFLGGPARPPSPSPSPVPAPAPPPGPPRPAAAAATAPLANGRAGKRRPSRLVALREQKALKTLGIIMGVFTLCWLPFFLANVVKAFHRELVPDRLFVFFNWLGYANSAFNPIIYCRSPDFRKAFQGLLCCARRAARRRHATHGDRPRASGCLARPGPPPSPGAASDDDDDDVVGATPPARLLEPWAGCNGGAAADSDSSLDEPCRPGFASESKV

For `CCCNCC(O)COc1ccc(C(=O)NCCc2ccc(S(N)(=O)=O)cc2)cc1` (stereo unspecified), the negative-log Ki (pKi) – broadly, the negative decadic logarithm of the Ki, by convention in mol/L – in assay [1] is less than 4.00; on Carbonic anhydrase 9 it was 8.13; in [2], less than 4.00.

As to `CNCC(O)COc1ccc(S(N)(=O)=O)cc1` (stereo unspecified), the pKi in assay [1] is less than 4.00; on Carbonic anhydrase 9, 7.63; in assay [2], less than 4.00.

With `NS(=O)(=O)c1ccc(CCNC(=O)c2ccc(OCC(O)CNCCO)cc2)cc1` (stereo unspecified), the figures for the pKi (in assay [1]; at Carbonic anhydrase 9; in assay [2]) were less than 4.00, 8.24 and less than 4.00, respectively.

For the compound `NS(=O)(=O)c1ccc(CCNC(=O)c2ccc(OCC(O)CNCc3ccccc3)cc2)cc1` (stereo unspecified), the pKi in assay [1] was less than 4.00; on Carbonic anhydrase 9, 7.13; in assay [2], less than 4.00.

As to `CNCC(O)COc1ccc(S(=O)(=O)NCCc2ccccc2)cc1` (stereo unspecified), the negative-log Ki (pKi) is 4.57 in assay [1], 7.23 on Carbonic anhydrase 9 and 4.40 in assay [2]. Also, in the assay with Oryctolagus cuniculus [3], the result was Active.

For `CNCC(O)COc1ccc(S(=O)(=O)N2CCN(C)CC2)cc1` (stereo unspecified), the pKi in assay [1] is less than 4.00; at Carbonic anhydrase 9, 6.90; in assay [2] it was less than 4.00.

On to `CC(C)(C)NCC(O)COc1ccc(C(=O)NCCc2ccc(S(N)(=O)=O)cc2)cc1` (stereo unspecified), for which the figures for the negative logarithm of the Ki (pKi) (in assay [1]; on Carbonic anhydrase 9; in [2]) were less than 4.00, 7.08 and less than 4.00, respectively.

For `CC(C)N(CC(O)COc1ccc(C(=O)NCCc2ccc(S(N)(=O)=O)cc2)cc1)C(C)C` (stereo unspecified), the results for the pKi (in assay [1]; on Carbonic anhydrase 9; in [2]) were less than 4.00, 8.22 and less than 4.00, respectively.

`CC(C)(C)NC[C@H](O)COc1nsnc1N1CCOCC1` [TIMOLOL]: the Activity in the assay with Oryctolagus cuniculus [4] came out at 5 mmHg; in the assay with Oryctolagus cuniculus [5], 3.54 mmHg; in the assay on Oryctolagus cuniculus [6] it was 5.73 mmHg. For the same compound, the result in the assay with Oryctolagus cuniculus [7] and in the assay on Oryctolagus cuniculus [8] was inactive.

Take `Cl.NS(=O)(=O)c1ccc(CCNC(=O)c2ccc(OCC(O)CN3CCOCC3)cc2)cc1` (stereo unspecified): the pKi was less than 4.00 in [1], 8.15 on Carbonic anhydrase 9 and less than 4.00 in assay [2]. For the same compound, in the assay with Oryctolagus cuniculus [3], the result was Active. The Activity with Oryctolagus cuniculus [9] is listed as 3.25 - 3.67 mmHg.

Consider `CCC(C)NCC(O)COc1ccc(C(=O)NCCc2ccc(S(N)(=O)=O)cc2)cc1` (stereo unspecified), for which the negative-log Ki (pKi) in assay [1] is less than 4.00; on Carbonic anhydrase 9 it was 7.27; in [2] it was less than 4.00.

For `CNCC(O)COc1ccc(S(=O)(=O)NC(C)C)cc1.Cl` (stereo unspecified), the pKi is 4.98 in assay [1], 7.32 at Carbonic anhydrase 9 and 4.50 in [2]. Moreover, the outcome with Oryctolagus cuniculus [3] was Active. Further, the Activity with Oryctolagus cuniculus [9] is 3.25 - 3.67 mmHg.

On to `CC(C)NCC(O)COc1ccc(C(=O)NCCc2ccc(S(N)(=O)=O)cc2)cc1` (stereo unspecified), for which the pKi in [1] is less than 4.00; on Carbonic anhydrase 9 it was 7.21; in [2] it was less than 4.00.

For `CNCC(O)COc1ccc(S(=O)(=O)NCc2ccccc2)cc1` (stereo unspecified), the results for the negative logarithm of the Ki (pKi) (in assay [1]; at Carbonic anhydrase 9; in [2]) were 4.10, 7.03 and less than 4.00, respectively.

In the case of `CNCC(O)COc1ccc(S(=O)(=O)NCCOc2ccccc2)cc1` (stereo unspecified), the negative-log Ki (pKi) was 5.18 in assay [1], 7.07 at Carbonic anhydrase 9 and 4.55 in assay [2].

In the case of `CNCC(O)COc1ccc(S(=O)(=O)NC(C)C(C)C)cc1` (stereo unspecified), the negative logarithm of the Ki (pKi) is 4.81 in assay [1], 6.97 at Carbonic anhydrase 9 and 4.52 in [2].

`CNCC(O)COc1ccc(S(=O)(=O)NC(C)(C)C)cc1.Cl` (stereo unspecified): the values for the pKi (in assay [1]; on Carbonic anhydrase 9; in [2]) were 4.87, 7.02 and 5.30, respectively. In addition, the outcome with Oryctolagus cuniculus [3] was Active. The Activity with Oryctolagus cuniculus [9] is given as 3.25 - 3.67 mmHg.

Regarding `CNCC(O)COc1ccc(C(=O)NCCc2ccc(S(N)(=O)=O)cc2)cc1` (stereo unspecified), the pKi was less than 4.00 in assay [1], 8.77 on Carbonic anhydrase 9 and less than 4.00 in assay [2].

Turning to `CCNCC(O)COc1ccc(C(=O)NCCc2ccc(S(N)(=O)=O)cc2)cc1` (stereo unspecified), the negative logarithm of the Ki (pKi) is less than 4.00 in [1], 7.66 on Carbonic anhydrase 9 and less than 4.00 in [2].
